Like-named read-outs stand apart in the source and are kept apart here. Starred links: 1 amine or outer side, 2 acyl side, 3 side chain; linkers in the order of their positions; H or OH if unused. Non-standard residues stand in square brackets, D forms with d. Residues, ends and D or L forms follow the SMILES beside them. *: point of attachment. Phe(4-NO2) = N[C@@H](Cc1ccc([N+](=O)[O-])cc1)C(=O)O; Phe(3-F) = N[C@@H](Cc1cccc(F)c1)C(=O)O; Phe(4-F) = N[C@@H](Cc1ccc(F)cc1)C(=O)O; 1Nal = N[C@@H](Cc1cccc2ccccc12)C(=O)O; Phe(2-F) = N[C@@H](Cc1ccccc1F)C(=O)O; pS = N[C@@H](COP(=O)(O)O)C(=O)O; Suc = O=C(CCC(=O)[*:2])[*:1]; Ethoxycarbonyl = CCOC(=O)*
Key:
[1] = target: βTrCP (Homo sapiens, UniProt Q9Y297); test: Fluorescence polarisation (FP) binding assay with fluorescein-tagged IκB peptide
Target sequence in this assay (P63208 whole entry partner, one chain of several): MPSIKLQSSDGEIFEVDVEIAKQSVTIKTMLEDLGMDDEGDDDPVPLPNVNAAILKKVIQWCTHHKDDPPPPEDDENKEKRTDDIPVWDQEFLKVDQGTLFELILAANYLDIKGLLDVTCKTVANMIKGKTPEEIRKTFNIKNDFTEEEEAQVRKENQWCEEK

[2] = target: βTrCP/Skp1 (Homo sapiens, UniProt Q9Y297); test: Surface plasmon resonance (SPR), Biacore T200; type: binding; conditions: apparent KD averaged over both surfaces
Description: Surface Plasmon Resonance (SPR)
Experiments were carried out using the Biacore T200 SPR detection system. This system exploits the phenomenon of surface plasmon resonance (SPR) to monitor interactions between molecules. The system involves the attachment of one interacting partner to a surface (an appropriate sensor chip) while the other interacting partner is passed over it in solution. The binding of molecules to the surface generates an SPR response (measured in response units (RU)) that is proportional to the mass and amount of the biomolecule (in this case βTrCP/Skp1) bound to the chip. The relative responses obtained are dependent on the concentration of the molecule binding. At RUmaximum, the attached protein's binding sites are saturated. Binding events can be followed in real time and a range of interaction characteristics can be determined including kinetics, specificity of interactions and the concentration of specific molecules in a sample.
As βTrCP was His tagged, an NTA sensor chip was used. This sensor chip has a dextran surface matrix with immobilized nitrilotriacetic acid (NTA) which provides a means of capturing polyHis-tagged proteins through Nickel chelation. It was hoped that addition of Ni^+ would orient the protein in a specific (and hopefully active) manner as it is covalently immobilised via amine coupling. Addition of EDC:NHS (N-ethyl-N′-(3-[…])-carbodiimide:N-hydroxysuccinimide) converts carboxyl groups on the dextran sensor chip surface to succinamide esters which readily form covalent bonds with primary amines. Each chip contains four flow cells (each a separate surface) which means that compounds/peptides can be passed over different forms of βTrCP and a reference surface simultaneously. If binding to βTrCP is occurring, responses should be the same (accounting for differences in density of surface etc) on each surface.
Two different βTrCP protein complexes were immobilised on to an NTA biacore sensor chip. One included the GSTSkp1 fusion (HisβTrCP/GSTSkp1) while the other was immobilised after GST Removal by Thrombin (HisβTrCP/Skp1). To ensure that the GST moiety is completely removed from Skp1, βTrCP/GSTSkp1 was incubated with thrombin ((10units/mg protein) for at least 16 hours at room temperature in 10mMHEPES 150mMNaCl pH7.4+2 mM CaCl2. Thrombin and GST were removed from βTrCP/Skp1 by buffer exchange through a 50 KDa MWCO vivaspin concentrator.
Protein Immobilisation Procedure for NTA Chip
Ni+ (500 μM NiCl) loaded on to surface at a flow rate of 5 μl/min for 60s. EDC/NHS (activates dextran carboxylates) loaded at a flow rate of 5 μl/min for 240s. Protein ([protein]=100 nM to 1 μM) loaded at a flow rate of 10 μl/min for 180s. Strip solution (350 μM EDTA/1M NaCl) added at flow rate of 10 μl/min for 30s (to chelate excess Ni+ and remove non-covalently bound protein e.g. protein oligomers). Quench solution (ethanolamine) at flow rate of 5 μl/min for 240s (to deactivate surface molecules on the chip that have not crosslinked protein). The immobilisation buffer used was 10 mM HEPES pH 7.4, 150 mM NaCl,
GST Capture Procedure (for Immobilisation Via GSTSkp1)
EDC:NHS was injected at 5 μl/min for 4 min to activate surface for amine coupling (this converts carboxyl groups on the surface of the chip to succinamide esters that react with primary amines)
Anti-GST (60 μg/ml). was loaded at 10 μl/min for 4 min resulting in an increase in response units of 6730 (Biacore manual states it should result in ˜7000)
Ethanolamine was injected at 5 μl/min for 5 min to deactivate remaining unreacted esters at surface (quenching).
Injection of a low concentration of purified GST (from kit) was injected for 3 mins at 5 μl/min before running a regeneration cycle with glycine pH2.0 that disrupts the antibody-GST interaction. […]

[3] = target: β-TrCP1/Skp1 (Homo sapiens, UniProt Q9Y297); test: βTrCP ubiquitination assay (Ub assay); type: biochemical; conditions: for Ub Assay 10 μM: 10 μM compound; for Ub Assay 100 μM: 100 μM compound
Description: (§1) βTrCP Ubiquitination Assay and Selectivity Assays
0.5 μM Peptide substrate (biotin)
(§2) Master mixes were prepared in a 50 mM Herpes buffer at pH 7.5, in 75 mM NaCl and 1 mM DTT without Mg or ATP and peptides were added to a final concentration of 100 μM. Reactions were incubated at room temperature for 30 minutes and then Mg/ATP was added to the mix. Reactions were further incubated for an additional 60 minutes and then stopped by adding SDS gel loading buffer and boiled for 5 minutes. Reactions were run on SDS-PAGE (10%) and transferred to nitrocellulose membranes and probed with HRP-Streptavidin.
Candidate compounds were tested in duplicate at both 10 and 100 μM against the E3 ligase cascades βTrCP(IκBα) and βTrCP(β-catenin). The E3 assays were carried out according to the component concentrations detailed in Table 9. In each case the E2 was HA,6His-UbcH3-(hu,FL), the E1 was 6His-UBE1-(hu,FL) and the ubiquitin (Sigma U6253) was biotinylated at a 5:1 ratio. Substrate phosphorylation was performed in the absence of compound; consequently any observed signal modulation should not reflect inhibition of the up-stream kinase reaction. All other steps (E1, E2 and substrate ubiquitination) were carried out in the presence of compound. The stopped reaction mix (10 μl) was added to an ECL plate loaded with anti c-Myc ( 1/500 Dilution, Millipore 05-724) and blocked with 5% BSA. Binding was allowed to proceed for 1 hour at RT before a wash step (3 40 μl PBST washes). Detection was achieved by binding SA-Ru TAG at 1 μg/ml (1 hour @ RT, 3 40 μl PBST washes) before reading on an MSD Sector Imager 6000.
Assays were performed as described above

[4] = target: Skp2 (Homo sapiens, UniProt Q13309); test: Selectivity assay vs other E3s: Skp2; type: biochemical; conditions: for inhibition at 100 µM: value in brackets, read-out: % Inhibition Skp2 @ (100 μM); for inhibition at 10 µM: read-out: % Inhibition Skp2 @ 10 μM
Description: as §1, §2
(§3) Candidate compounds were tested for inhibition of Fbw7 and Skp2 as described above.

[5] = target: FBW7/Skp1 (Homo sapiens, UniProt Q969H0); test: Selectivity assay vs other E3s: Fbw7; type: biochemical; conditions: for inhibition at 100 µM: value in brackets, read-out: % Inhibition Fbw7 @ (100 μM); for inhibition at 10 µM: read-out: % Inhibition Fbw7 @ 10 μM
Description: as §1, §2
FBW7 selectivity assays were performed in the same manner except using FBW7/Skp1 as E3 component and cyclin E as the substrate. Blots were probed using anti-cyclin E antibody.
as §3

[6] = target: T1, βTrCP (Homo sapiens, UniProt Q9Y297); test: Biotin pull down assay with biotinylated IκB peptide; type: binding; conditions: for Biotin Pulldown Assay 10 μM: 10 μM compound; for Biotin Pulldown Assay 100 μM: 100 μM compound
T1 sequence (Q9Y297 1-605): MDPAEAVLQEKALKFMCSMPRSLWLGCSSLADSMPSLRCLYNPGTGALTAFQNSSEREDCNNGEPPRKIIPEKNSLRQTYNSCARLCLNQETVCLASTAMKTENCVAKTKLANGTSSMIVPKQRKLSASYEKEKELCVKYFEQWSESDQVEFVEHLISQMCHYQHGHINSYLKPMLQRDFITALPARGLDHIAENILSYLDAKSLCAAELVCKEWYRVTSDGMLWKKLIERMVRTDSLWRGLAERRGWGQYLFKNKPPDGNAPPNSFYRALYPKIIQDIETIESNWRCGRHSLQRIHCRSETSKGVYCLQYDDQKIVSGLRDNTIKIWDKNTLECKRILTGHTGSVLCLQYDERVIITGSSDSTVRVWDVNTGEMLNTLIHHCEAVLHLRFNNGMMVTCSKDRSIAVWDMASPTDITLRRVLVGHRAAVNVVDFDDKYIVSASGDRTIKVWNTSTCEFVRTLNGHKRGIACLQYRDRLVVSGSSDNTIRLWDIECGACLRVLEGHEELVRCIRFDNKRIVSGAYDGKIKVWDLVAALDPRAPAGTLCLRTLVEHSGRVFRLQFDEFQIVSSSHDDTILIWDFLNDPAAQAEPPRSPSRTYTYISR

[7] = Table 11, with spread, read-out: FP IC50/μM
[8] = Tables 1, 3, 7, 8, 10 nM fluorescein-tagged IκB peptide, read-out: FP Assay IC50/μM

Skp2, sequence (Q13309 whole entry, species assumed): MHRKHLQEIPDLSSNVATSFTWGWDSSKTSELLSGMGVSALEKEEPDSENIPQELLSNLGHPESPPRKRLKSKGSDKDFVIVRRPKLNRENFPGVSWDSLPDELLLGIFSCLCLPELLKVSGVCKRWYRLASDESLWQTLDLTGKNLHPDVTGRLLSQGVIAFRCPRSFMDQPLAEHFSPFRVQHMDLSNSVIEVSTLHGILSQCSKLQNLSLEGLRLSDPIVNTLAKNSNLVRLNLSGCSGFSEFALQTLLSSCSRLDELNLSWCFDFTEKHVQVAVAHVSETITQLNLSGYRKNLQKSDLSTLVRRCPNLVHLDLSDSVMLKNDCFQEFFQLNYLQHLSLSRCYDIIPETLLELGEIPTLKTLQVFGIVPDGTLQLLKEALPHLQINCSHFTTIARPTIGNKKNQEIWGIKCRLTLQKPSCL
Skp2, sequence (P63208 whole entry partner, species assumed): as the sequence (P63208 whole entry partner, one chain of several) above
Skp2, sequence (Q13616 whole entry partner, species assumed): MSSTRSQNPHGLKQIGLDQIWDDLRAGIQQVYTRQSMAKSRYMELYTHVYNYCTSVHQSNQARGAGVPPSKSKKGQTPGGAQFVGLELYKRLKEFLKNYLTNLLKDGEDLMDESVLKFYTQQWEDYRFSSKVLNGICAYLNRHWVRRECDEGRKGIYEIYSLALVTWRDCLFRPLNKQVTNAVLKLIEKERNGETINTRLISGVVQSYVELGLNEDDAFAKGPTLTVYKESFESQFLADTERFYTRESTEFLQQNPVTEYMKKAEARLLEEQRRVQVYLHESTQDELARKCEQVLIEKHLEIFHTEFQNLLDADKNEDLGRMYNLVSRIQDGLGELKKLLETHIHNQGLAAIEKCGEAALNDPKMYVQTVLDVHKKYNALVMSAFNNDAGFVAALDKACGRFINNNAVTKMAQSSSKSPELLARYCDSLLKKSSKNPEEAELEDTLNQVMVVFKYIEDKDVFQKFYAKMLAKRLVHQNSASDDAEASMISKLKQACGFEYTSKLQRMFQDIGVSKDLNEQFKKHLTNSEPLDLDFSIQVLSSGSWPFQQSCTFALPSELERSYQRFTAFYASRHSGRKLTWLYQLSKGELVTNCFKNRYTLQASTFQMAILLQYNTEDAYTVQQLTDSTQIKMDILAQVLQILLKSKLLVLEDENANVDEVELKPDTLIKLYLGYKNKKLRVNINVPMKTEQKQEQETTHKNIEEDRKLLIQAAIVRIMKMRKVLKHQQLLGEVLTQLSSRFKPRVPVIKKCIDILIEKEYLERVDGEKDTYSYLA
Skp2, sequence (P62877 whole entry partner, species assumed): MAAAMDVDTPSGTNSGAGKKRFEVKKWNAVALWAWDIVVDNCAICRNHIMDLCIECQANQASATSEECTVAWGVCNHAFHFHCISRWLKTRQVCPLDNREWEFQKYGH
βTrCP/Skp1, sequence (P63208 whole entry partner, one chain of several): as the sequence (P63208 whole entry partner, one chain of several) above
β-TrCP1/Skp1, sequence (P63208 2-163 partner limits assumed, one chain of several): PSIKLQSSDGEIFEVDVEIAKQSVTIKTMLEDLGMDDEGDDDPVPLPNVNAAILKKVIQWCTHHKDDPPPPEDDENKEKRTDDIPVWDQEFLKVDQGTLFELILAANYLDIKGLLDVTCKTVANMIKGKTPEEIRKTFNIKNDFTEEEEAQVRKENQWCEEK
FBW7/Skp1, sequence (Q969H0 whole entry, species assumed): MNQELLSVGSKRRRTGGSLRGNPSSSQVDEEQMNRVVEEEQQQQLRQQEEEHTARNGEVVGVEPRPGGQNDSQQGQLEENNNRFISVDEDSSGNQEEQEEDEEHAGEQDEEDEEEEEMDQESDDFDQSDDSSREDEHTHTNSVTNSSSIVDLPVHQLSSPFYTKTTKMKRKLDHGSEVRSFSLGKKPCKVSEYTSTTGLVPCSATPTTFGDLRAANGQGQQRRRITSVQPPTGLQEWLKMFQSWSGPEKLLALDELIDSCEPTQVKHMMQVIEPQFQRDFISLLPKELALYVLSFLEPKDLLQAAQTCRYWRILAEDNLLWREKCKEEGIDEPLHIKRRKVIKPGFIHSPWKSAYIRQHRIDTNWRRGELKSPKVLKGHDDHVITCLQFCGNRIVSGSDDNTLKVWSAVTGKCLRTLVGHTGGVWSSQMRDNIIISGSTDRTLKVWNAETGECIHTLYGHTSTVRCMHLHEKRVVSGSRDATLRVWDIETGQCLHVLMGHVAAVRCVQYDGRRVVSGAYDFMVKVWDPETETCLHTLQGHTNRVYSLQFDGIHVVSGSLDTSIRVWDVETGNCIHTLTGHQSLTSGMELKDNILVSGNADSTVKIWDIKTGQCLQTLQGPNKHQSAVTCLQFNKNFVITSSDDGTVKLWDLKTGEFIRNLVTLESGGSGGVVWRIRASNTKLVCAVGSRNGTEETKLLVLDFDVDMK
FBW7/Skp1, sequence (P63208 whole entry partner, species assumed): as the sequence (P63208 whole entry partner, one chain of several) above
FBW7/Skp1, sequence (Q13616 whole entry partner, species assumed): as the sequence (Q13616 whole entry partner, species assumed) above
FBW7/Skp1, sequence (P62877 whole entry partner, species assumed): as the sequence (P62877 whole entry partner, species assumed) above

SMILES | IC50 [1, 7] [µM] | Kd [2] [µM] | Ub Assay 10 μM [3] | Ub Assay 100 μM [3] | inhibition at 100 µM [4] [%] | inhibition at 10 µM [4] [%] | inhibition at 100 µM [5] [%] | inhibition at 10 µM [5] [%] | Biotin Pulldown Assay 10 μM [6] | Biotin Pulldown Assay 100 μM [6] | IC50 [1, 8] [µM]
CCOC(=O)N[C@H](CC(=O)O)C(=O)N[C@@H](CCC(=O)O)C(=O)NCC(=O)N[C@@H](Cc1cccc(F)c1)C(=O)N[C@@H](Cc1c[nH]c2ccccc12)C(=O)N[C@@H](CCC(=O)O)C(N)=O [UBP023, EtO(CO)-dEGF(3F)WE-NH2] (Ethoxycarbonyl-[dD]EG[Phe(3-F)]WE-NH2) | 0.045 ± 0.005 | 0.034 ± 0.017 | inhibits/ | inhibits | 4 | 4 | 12 | 0 | reduces/ | inhibits | –
CC[C@H](C)[C@H](NC(=O)CNC(=O)[C@H](COP(=O)(O)O)NC(=O)[C@@H](N)CC(=O)O)C(=O)N[C@@H](Cc1ccccc1)C(=O)N[C@@H](CCC(=O)O)C(N)=O [UBP001, DpSGIFE-NH2] (H-D[pS]GIFE-NH2) | 1.24 ± 0.145 | 1.48 ± 0.286 | reduces/ | inhibits | 13 | 8 | 0 | 0 | reduces/ | inhibits | –
NC(=O)[C@H](CCC(=O)O)NC(=O)[C@H](Cc1c[nH]cn1)NC(=O)[C@H](Cc1cccc(F)c1)NC(=O)CNC(=O)[C@H](CCC(=O)O)NC(=O)CCC(=O)O [UBP015, Suc-EGF(3F)HE-NH2] (Suc-EG[Phe(3-F)]HE-NH2) | 0.521 ± 0.059 | 0.4 ± 0.021 | reduces/ | inhibits | 18 | 3 | 83 | 12 | reduces/ | inhibits | 0.521
NC(=O)[C@H](CCC(=O)O)NC(=O)[C@H](Cc1cccc2ccccc12)NC(=O)[C@H](Cc1ccc([N+](=O)[O-])cc1)NC(=O)CNC(=O)[C@H](CCC(=O)O)NC(=O)CCC(=O)O [UBP011, Suc-EGF(4NO2)1NalE-NH2] (Suc-EG[Phe(4-NO2)][1Nal]E-NH2) | 1.31 ± 0.198 | 1.96 ± 0.635 | reduces/ | inhibits | 6 | 12 | 28 | 14 | reduces/ | inhibits | –
COc1ccc(C[C@H](NC(=O)[C@H](Cc2ccccc2F)NC(=O)CNC(=O)[C@H](CCC(=O)O)NC(=O)CCC(=O)O)C(=O)N[C@@H](CCC(=O)O)C(N)=O)cc1 [UBP006, Suc-EGF(2F)Y(Me)E-NH2] (Suc-EG[Phe(2-F)]Y(Me)E-NH2) | 3.28 ± 0.5 | 4.4 ± 0.82 | no effect/ | inhibits | 4 | 0 | 4 | 0 | no effect/ | reduces | 3.2
NC(=O)[C@H](CCC(=O)O)NC(=O)[C@H](Cc1ccc([N+](=O)[O-])cc1)NC(=O)[C@H](Cc1ccc(F)cc1)NC(=O)CNC(=O)[C@H](CCC(=O)O)NC(=O)CCC(=O)O [UBP005, Suc-EGF(4F)F(4NO2)E-NH2] (Suc-EG[Phe(4-F)][Phe(4-NO2)]E-NH2) | 1.21 ± 0.093 | 0.507 ± 0.267 | reduces/ | inhibits | 0 | 0 | 0 | 0 | no effect/ | inhibits | –

Reference: patent publication US20190106460A1, “BINDING INHIBITORS OF THE BETA. TRANSDUCIN REPEAT-CONTAINING PROTEIN” (priority 2011, published 2019)
